Test results: patent US11407725B2 (The Board of Trustees of the University of Illinois, priority 2018, dated 2022)
Like-named read-outs stand apart in the source and are kept apart here.

Experiments:
ALDH1A3 = molecular target: T1, ALDH1A3 (Homo sapiens, UniProt P47895); experiment: ALDH isoform selectivity of red probes: ALDH1A3; type: biochemical; conditions: for Enzyme Activity 1A3: Table 2
T1 construct: made in house
T1 sequence (P47895 1-512): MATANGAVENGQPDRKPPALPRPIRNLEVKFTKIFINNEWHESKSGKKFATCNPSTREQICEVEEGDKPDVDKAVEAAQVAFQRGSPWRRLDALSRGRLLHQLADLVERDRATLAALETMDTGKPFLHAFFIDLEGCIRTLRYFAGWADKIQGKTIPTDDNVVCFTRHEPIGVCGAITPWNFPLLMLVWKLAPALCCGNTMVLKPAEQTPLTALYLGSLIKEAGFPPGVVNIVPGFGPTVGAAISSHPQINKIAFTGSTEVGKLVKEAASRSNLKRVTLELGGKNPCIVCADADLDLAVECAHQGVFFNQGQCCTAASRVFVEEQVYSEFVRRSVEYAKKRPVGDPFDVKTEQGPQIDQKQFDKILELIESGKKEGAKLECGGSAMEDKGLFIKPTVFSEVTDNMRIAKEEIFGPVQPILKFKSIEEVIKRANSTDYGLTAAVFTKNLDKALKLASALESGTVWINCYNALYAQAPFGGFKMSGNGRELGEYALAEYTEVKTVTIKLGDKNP
Procedure: (§1) Each ALDH isoform was added to a 50 mM triethanolamine solution (pH 7.4) containing 2.0 mM NAD^+ and 100 μM substrate at room temperature. Benzaldehyde was the substrate for ALDH3A1. Propanal was the substrate for all other isoforms. ALDH isoform activity was determined by monitoring the rate of NADH production through the increase in absorbance at 340 nm (ε=6220 M^−1cm^−1). For these assays, 1 unit is defined as the amount of enzyme that catalyzes the conversion of […] per minute. For every combination of dye and enzyme, 2 μM dye was preincubated with 2.0 mM NAD^+ in 50 mM triethanolamine solution (pH 7.4). The reaction was initiated by addition of 1 unit of ALDH. Dyes were excited at 590 nm, and fluorescence was measured continuously at 610 nm.

ALDH1A1 [1] = molecular target: T2, ALDH1A1 (Homo sapiens, UniProt P00352); experiment: ALDH isoform selectivity of red probes: ALDH1A1; type: biochemical; conditions: for Enzyme Activity 1A1 / Enzymatic Turn On: Table 2; for Enzymatic Turn On: ALDH1A1, 2 μM dye
T2 construct: made in house
T2 sequence (P00352 1-501): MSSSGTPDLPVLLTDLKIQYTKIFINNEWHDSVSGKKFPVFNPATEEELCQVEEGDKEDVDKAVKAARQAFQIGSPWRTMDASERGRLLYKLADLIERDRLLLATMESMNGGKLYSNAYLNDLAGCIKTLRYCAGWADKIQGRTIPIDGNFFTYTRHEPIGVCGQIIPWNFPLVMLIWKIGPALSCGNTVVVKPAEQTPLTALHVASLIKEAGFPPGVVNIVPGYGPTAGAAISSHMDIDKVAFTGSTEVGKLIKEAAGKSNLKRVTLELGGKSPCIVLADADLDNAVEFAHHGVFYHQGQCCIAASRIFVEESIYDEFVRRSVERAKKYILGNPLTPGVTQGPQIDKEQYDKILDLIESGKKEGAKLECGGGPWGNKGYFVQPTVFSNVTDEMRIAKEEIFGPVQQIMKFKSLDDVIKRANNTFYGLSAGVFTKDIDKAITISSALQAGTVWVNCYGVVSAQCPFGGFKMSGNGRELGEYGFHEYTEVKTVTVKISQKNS
Procedure: as §1

[2] = Photophysical properties (absorbance, emission, extinction coefficient, quantum yield); type: physicochemical; conditions: for Quantum Yield: Probes 1-8
K562 cells = experiment: Trypan blue cytotoxicity / viability assay; type: cell-based
Procedure: K562 cells were plated in a 96-well plate with 50,000 cells per well. Each well was filled to a final volume of 100 μL IMDM media with 0.25% DMSO. Wells were tested using red-AlDeSense or Ctrl-red-AlDeSense (1 μM and 5 μM each) or using a DMSO control. After 6-, 12-, and 24-hour incubation periods at 37° C. and 5% CO2, a 10 μL sample was removed from each condition and combined with 10 μL 0.4% w/v trypan blue in PBS. Samples were incubated for 3 minutes at room temperature before being loaded on a hemocytometer where live and dead cells were counted. Conditions were tested in triplicate for each time point. Samples were analyzed on an EVOS digital inverted microscope using transmitted white light for brightfield imaging and the Cy5 filter cube for trypan blue visualization.
K562 cells were plated in a 96-well plate at a density of 500,000 cells/mL in full IMDM media supplemented with either 1 μM or […] AlDeSense AM. Equivalent samples were supplemented with 1 μM or […] as a vehicle control. At 6, 12, and 24 hours, a 10 μL sample was removed from each of the samples and mixed 1:1 with a 0.4% wt/volume trypan blue solution in PBS. Samples were incubated for 1 minute at room temperature before being loaded onto a hemocytometer where live and dead cells were counted. Each sample was made in triplicate for each time point.

[3] = Stability of the fluorophore against water-mediated decomposition; type: physicochemical
[4] = test system: e-CSC and non-CSC melanoma lung metastases; experiment: Ex vivo lung metastases imaging; type: in vivo, mice; conditions: lungs perfused ex vivo, day 7 and 11
Procedure: Six to eight-week-old female C57BL/6J mice were purchased from Jackson Laboratory. Experimental metastases were established by injecting 2×10^5 melanoma cells via lateral tail vein injection. Mice were euthanized at either 7- or 11-days post injection. Immediately after euthanization, their lungs were excised and perfused with about 1 mL of either 15 μM AlDeSense AM or 15 μM Ctrl-AlDeSense AM in PBS. Outer portions of the lungs were rinsed in 15 mL of PBS to remove blood or excess dyes. After 2 hours incubation at room temperature (25° C.), the lungs were imaged on the IVIS spectrum imaging system (Perkin Elmer). Data was processed using Living Image software (Version 4.1).

[5] = pKa determination (pH profile of fluorescence); conditions: Britton-Robinson buffer
Procedure: The fluorescence of 1 μM of each compound was measured in 40 mM Britton-Robinson buffer at pH 2-9 in 0.5 pH intervals. Each measurement was performed in triplicate. […] Error bars are ±standard deviation (SD).

ALDH1A1 [6] = molecular target: T2, ALDH1A1; experiment: Fluorescence turn-on of AlDeSense with recombinant ALDH1A1; type: biochemical; conditions: fluorescent enhancement when treated with ALDH1A1; 1 μM probe
Procedure: Activation of AlDeSense was assessed using 20 units of each ALDH isoform. Activity was determined by activity measurements using each isoform's preferred substrate (1 unit=1 μmol substrate turned over/mol enzyme/min). Further details are in the supplementary information. All enzymatic reactions were performed in 50 mM triethanolamine buffer (pH 7.4, Thermo Fisher) with 2.5 mM NAD+(Alfa Aesar) and 5% v/v DMSO (Thermo Fisher) in a 1 mL quartz cuvette at room temperature.
AlDeSense activation was determined using fluorescence. Immediately before measurement, AlDeSense (1 μM) was added to a quartz cuvette. After vigorous mixing, the reaction was monitored at room temperature for 15 min. Fluorescence spectra were acquired according to following parameters: λex=498 nm, and emission range=505-580 nm. All scans were normalized to the signal from AlDeSense in 50 mM TEA and 2.5 mM NAD+(without enzyme). Endpoint measurements at 15 min were performed in triplicate and reported as the averages±standard deviation.

[7] = test system: e-CSC and non-CSC B16F0 tumors; experiment: In vivo melanoma tumor fluorescence imaging; set-up: species or system mice; conditions: 1 and 2 weeks
Log D7.4 = type: physicochemical; conditions: pH 7.4
ALDH1A1 kinetics [8] = substrate: Cc1cc(C=O)c(F)c(F)c1C1=C2C=CC(=O)C=C2[Si](C)(C)c2cc(O)ccc21; experiment: ALDH1A1 kinetics; type: biochemical, human; conditions: other: ALDH1A1, identical conditions; pH 7.4
Procedure: (§2) Solutions were prepared of 2.0 mM NAD+ and 0.1-2.5 μM AlDeSense or red-AlDeSense in 50 mM triethanolamine solution (pH 7.4). For every concentration, 1 unit of enzyme (as defined and determined in ALDH Isoform Selectivity) was added. Fluorescence was monitored for 30 seconds to determine V0. AlDeSense was excited at 490 nm and monitored at 510 nm. Red-AlDeSense was excited at 590 nm and monitored at 610 nm. Each condition was performed in triplicate. Protein concentration was determined using the Pierce™ BCA Protein Assay Kit. Data was analyzed using Microsoft Excel.

ALDH1A1 kinetics [9] = substrate: Cc1cc(C=O)ccc1-c1c2cc(F)c(=O)cc-2oc2cc(O)c(F)cc12; experiment: ALDH1A1 kinetics; type: biochemical, human; conditions: other: ALDH1A1, identical conditions; pH 7.4
Procedure: as §2

Molecule: Cc1cc(C=O)ccc1C1=C2C=CC(=O)C=C2[Si](C)(C)c2cc(O)ccc21 [Probe 1, 4-(7-Hydroxy-5,5-dimethyl-3-oxo-3,5-dihydrodibenzo[b, e]silin-10-yl)-3-methylbenzaldehyde]
- selectivity ALDH1A1 versus ALDH1A3 (ALDH1A3): no longer selective for ALDH1A1
- Enzyme Activity 1A3 (ALDH1A3): Medium
- turn-on response when treated with ALDH1A1 (ALDH1A1 [1]): 1.7 fold
- Enzyme Activity 1A1 (ALDH1A1 [1]): High
- Enzymatic Turn On (ALDH1A1 [1]): 1.7
- Quantum Yield [2]: 0.32

Molecule: Cc1c(F)c(C=O)cc(F)c1C1=C2C=CC(=O)C=C2[Si](C)(C)c2cc(O)ccc21 [Probe 8, 2,5-Difluoro-4-(7-hydroxy-5,5-dimethyl-3-oxo-3,5-dihydrodibenzo[b, e]silin-0-yl)-3-methylbenzaldehyde]
- selectivity ALDH1A1 versus ALDH1A3 (ALDH1A3): selectivity was eroded
- Enzyme Activity 1A3 (ALDH1A3): Medium
- Enzyme Activity 1A1 (ALDH1A1 [1]): High
- Enzymatic Turn On (ALDH1A1 [1]): 3.1
- Quantum Yield [2]: 0.20

Molecule: Cc1cc(C(=O)O)ccc1-c1c2cc(F)c(=O)cc-2oc2cc(O)c(F)cc12 [oxidized AlDeSense]
- toxicity in cell viability assay (K562 cells; K562 cells, 6, 12 and 24 hours): non-toxic

Molecule: C[Si]1(C)C2=CC(=O)C=CC2=C(c2ccc(C=O)cc2[N+](=O)[O-])c2ccc(O)cc21 [Probe 4, 4-(7-Hydroxy-5,5-dimethyl-3-oxo-3,5-dihydrodibenzo[b, e]silin-10-yl)-3-nitrobenzaldehyde]
- Quantum Yield [2]: 0.00

Molecule: C[Si]1(C)C2=CC(=O)C=CC2=C(c2ccc(C=O)cc2F)c2ccc(O)cc21 [Probe 2, 3-Fluoro-4-(7-hydroxy-5,5-dimethyl-3-oxo-3,5-dihydrodibenzo[b, e]silin-10-yl)benzaldehyde]
- stability against water-mediated decomposition of the fluorophore [3]: rapid decomposition

Molecule: Cc1cc(C=O)c(F)cc1C1=C2C=CC(=O)C=C2[Si](C)(C)c2cc(O)ccc21 [Probe 5, 2-Fluoro-4-(7-hydroxy-5,5-dimethyl-3-oxo-3,5-dihydrodibenzo[b, e]silin-10-yl)-5-methylbenzaldehyde]
- Enzyme Activity 1A3 (ALDH1A3): Low
- turn-on response when treated with ALDH1A1 (ALDH1A1 [1]): 2.6 fold
- Enzyme Activity 1A1 (ALDH1A1 [1]): High
- Enzymatic Turn On (ALDH1A1 [1]): 2.6
- Quantum Yield [2]: 0.21

Molecule: C[Si]1(C)C2=CC(=O)C=CC2=C(c2c(F)cc(C=O)cc2F)c2ccc(O)cc21 [Probe 6, 3,5-Difluoro-4-(7-hydroxy-5,5-dimethyl-3-oxo-3,5-dihydrodibenzo[b, e]silin-10-yl)benzaldehyde]
- selectivity ALDH1A1 versus ALDH1A3 (ALDH1A3): exhibited cross-reactivity with ALDH1A3
- Enzyme Activity 1A3 (ALDH1A3): High
- stability against water-mediated decomposition of the fluorophore [3]: prevent water-mediated decomposition
- turn-on response when treated with ALDH1A1 (ALDH1A1 [1]): 3.9 fold
- Enzyme Activity 1A1 (ALDH1A1 [1]): High
- Enzymatic Turn On (ALDH1A1 [1]): 3.9
- Quantum Yield [2]: 0.13

Molecule: CC(=O)c1ccc(-c2c3cc(F)c(=O)cc-3oc3cc(O)c(F)cc23)c(C)c1 [Ctrl-AlDeSense]
- fluorescence of e-CSC lungs versus non-CSC lungs [4]: not statistically different
- pKa [5]: 4.47
- Turn-on (fold) (ALDH1A1 [6]): 0 fold
- signal in e-CSC versus non-CSC tumors [7]: did not show increased signal
- toxicity in cell viability assay (K562 cells; K562 cells, 6, 12 and 24 hours): non-toxic
- logD (Log D7.4): 0.87
- ε [2]: 68000 M⁻¹ cm⁻¹
- λcm ([2]; Table 1): 518 nm
- λabs ([2]; maximum absorbance): 496 nm
- ΦF ([2]; prior to activation): 0.039

Molecule: CC(=O)c1cc(F)c(C2=C3C=CC(=O)C=C3[Si](C)(C)c3cc(O)ccc32)c(C)c1F [Ctrl-red-AlDeSense, 10-(4-A cetyl-3,6-difluoro-2-methylphenyl)-7-hydroxy-5,5-dimethyldibenzo[b, e]silin-3(5H)-one]
- toxicity in cell viability assay (K562 cells): nontoxic

B1: ALDH1A1 (Homo sapiens) (protein)
chain: MSSSGTPDLPVLLTDLKIQYTKIFINNEWHDSVSGKKFPVFNPATEEELCQVEEGDKEDVDKAVKAARQAFQIGSPWRTMDASERGRLLYKLADLIERDRLLLATMESMNGGKLYSNAYLNDLAGCIKTLRYCAGWADKIQGRTIPIDGNFFTYTRHEPIGVCGQIIPWNFPLVMLIWKIGPALSCGNTVVVKPAEQTPLTALHVASLIKEAGFPPGVVNIVPGYGPTAGAAISSHMDIDKVAFTGSTEVGKLIKEAAGKSNLKRVTLELGGKSPCIVLADADLDNAVEFAHHGVFYHQGQCCIAASRIFVEESIYDEFVRRSVERAKKYILGNPLTPGVTQGPQIDKEQYDKILDLIESGKKEGAKLECGGGPWGNKGYFVQPTVFSNVTDEMRIAKEEIFGPVQQIMKFKSLDDVIKRANNTFYGLSAGVFTKDIDKAITISSALQAGTVWVNCYGVVSAQCPFGGFKMSGNGRELGEYGFHEYTEVKTVTVKISQKNS
notes: made in house
- kcat/Km (ALDH1A1 kinetics [8]): 132000 M⁻¹ s⁻¹
- kcat/Km (ALDH1A1 kinetics [9]): 57700 M⁻¹ s⁻¹
